The values that follow come from US20140255518A1, “Treatment and Prevention of Gastrointestinal Syndrome” (THOMAS JEFFERSON UNIVERSITY HOSPITALS, INC., priority 2011, published 2014).

Where two headings read alike, the source gives them in different places. No end group written: not given here.

Assay [1] relates to HCT116 cells (P53 wildtype). In words: IR-induced cell death after cGMP preconditioning, HCT116 (P53 wildtype). It is filed as cell-based, human. The note with it: HCT116 cells (P53 wildtype) preconditioned with cGMP; FIG. 3 (A). Here is the method:
(§1) Experiments were performed to show the requirement of GCC activation in the protection of small intestine and colon cells from apoptosis and genotoxic induced cell death. The role of activation of GCC and of the presence of p53 was also evaluated. Test on cancer cells were performed to compare the protection by cGMP of colon cancer cells from cell death in compared to cGMP's potentiation of cell death in other cancers.

The subject of assay [2] is HCT116P53−/− cells (P53 null). Put plainly: IR-induced cell death after cGMP preconditioning, HCT116 P53 null. The class given is cell-based, human. The note with it: HCT116P53−/− cells (P53 null) preconditioned with cGMP; FIG. 3 (B). Here is the method: as §1
In a further assay the test system is human colon cells. Put plainly: Cell death after irinotecan (CPT11) challenge, human colon cells. The class given is cell-based. The note with it: irinotecan (CPT11, 100 μM). The protocol:
as §1

The subject of assay [3] is human breast cancer cells. In words: CPT11-induced cell death after cGMP preconditioning, breast cancer cells. The class given is cell-based. The note with it: cGMP precondition. Here is the method: as §1
Another assay has as its system human liver cancer cells. Put plainly: CPT11-induced cell death after cGMP preconditioning, liver cancer cells. The note with it: cGMP precondition. It is filed as cell-based. Here is the method:
as §1

The test system of assay [4] is human prostate cancer cells. In words: CPT11-induced cell death after cGMP preconditioning, prostate cancer cells. The note with it: cGMP precondition. The class given is cell-based. Here is the method:
as §1

The subject of the next assay is HCT116 cells. Put plainly: CPT11-induced cell death after cGMP preconditioning, HCT116 cells. It is filed as cell-based, human. The note with it: HCT116 cells preconditioned with cGMP. The protocol:
as §1

Assay [5] relates to irradiated intestinal tissue. The note with it: cited from earlier work.
In assay [6] the target is ST receptors / guanylate cyclase (Homo sapiens, UniProt P25092). The note with it: compared with native ST; cited from earlier work.
ST receptors / guanylate cyclase, sequence (P25092 24-1073): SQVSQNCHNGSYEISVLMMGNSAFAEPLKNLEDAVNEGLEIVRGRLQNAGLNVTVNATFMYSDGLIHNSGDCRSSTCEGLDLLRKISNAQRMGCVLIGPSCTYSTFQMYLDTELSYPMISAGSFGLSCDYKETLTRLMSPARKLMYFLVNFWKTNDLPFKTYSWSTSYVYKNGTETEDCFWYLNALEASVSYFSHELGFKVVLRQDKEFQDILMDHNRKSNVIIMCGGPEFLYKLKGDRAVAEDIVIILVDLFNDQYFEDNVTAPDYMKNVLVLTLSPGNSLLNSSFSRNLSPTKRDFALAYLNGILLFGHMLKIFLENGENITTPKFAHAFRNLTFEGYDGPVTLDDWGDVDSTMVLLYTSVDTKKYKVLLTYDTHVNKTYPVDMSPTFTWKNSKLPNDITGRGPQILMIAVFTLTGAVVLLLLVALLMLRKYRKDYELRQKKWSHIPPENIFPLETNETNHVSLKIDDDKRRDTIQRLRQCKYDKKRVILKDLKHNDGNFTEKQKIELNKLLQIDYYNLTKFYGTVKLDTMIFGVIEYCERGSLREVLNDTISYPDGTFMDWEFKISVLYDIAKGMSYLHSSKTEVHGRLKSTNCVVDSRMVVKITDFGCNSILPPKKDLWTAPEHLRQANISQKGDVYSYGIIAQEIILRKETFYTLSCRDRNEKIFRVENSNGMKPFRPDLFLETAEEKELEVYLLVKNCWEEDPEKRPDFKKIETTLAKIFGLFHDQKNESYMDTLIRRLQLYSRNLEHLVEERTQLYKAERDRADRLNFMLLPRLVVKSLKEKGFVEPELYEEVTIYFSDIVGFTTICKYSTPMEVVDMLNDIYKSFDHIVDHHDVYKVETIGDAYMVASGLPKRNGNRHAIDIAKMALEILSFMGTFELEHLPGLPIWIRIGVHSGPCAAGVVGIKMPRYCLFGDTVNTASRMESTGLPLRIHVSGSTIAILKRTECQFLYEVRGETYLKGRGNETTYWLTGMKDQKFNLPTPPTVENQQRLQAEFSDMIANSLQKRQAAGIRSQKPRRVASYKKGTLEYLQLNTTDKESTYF

For the compound `Nc1nc2c(ncn2[C@@H]2O[C@@H]3COP(=O)(O)O[C@H]3[C@H]2O)c(=O)[nH]1` [cGMP, cyclic GMP], in [1], the IR-induced cell death result is on record as “resisted IR-induced cell death”. Also, the “protection from IR-induced cell death” value in assay [2] was “protection by cGMP preconditioning did not occur”. Besides, the “cell death in response to irinotecan challenge” value with human colon cells is on record as “protected cell death”. Also, the “cell death induced by CPT11” value (in assay [3]; in the assay on human liver cancer cells; in assay [4]) was “promoted cell death” in each case. Further, in the assay on HCT116 cells, the CPT11-induced cell death result is listed as “resisted CPT11-induced cell death”. The “P53 dependence of protection from CPT11-induced cell death” value in the assay on HCT116 cells was “protection was P53 dependent”. The “level of apoptosis in irradiated intestinal tissue” value in assay [5] (mice lacking genes encoding GCC or uroguanylin, cGMP supplementation (cGMP analog injected)) is given as “ameriolated the level of apoptosis”; in [5] (wild type mice, cGMP supplementation), “not in wild type mice”.

For “Guanylin: 15 amino acid peptide from mammalian intestine, about 50% sequence homology to ST; native GCC agonist (SEQ ID NO:6, 54) (PGTCEICAYAACTGC; ends and bridges not checked; cysteine pairing not given here; UniProt Q02747 101-115, looked up)”, the “binding to ST receptors and activation of guanylate cyclase, level relative to native ST” value in assay [6] is recorded as 10- to 100 fold less than native ST.
